{
  "source": "patent US6359112B2",
  "about": "(Fraunhofer-Gesellschaft zur Forferung der angewandten …, priority 1997, dated 2002)",
  "key": {"Rat Insulinoma (RIN5 mf)": {"system": "Rat Insulinoma (RIN5 mf)", "description": "(§1) FIG. 4 is a graph of MTT reduction as a function of concentration of NFGAIL, SEQ ID NO: 3.\n(§2) Suspensions of the peptide aggregate (produced as described as above) were tested by means of a Rat Insulinoma (RIN5 mf) and a human astroglioma-cell series (HTB-14) for toxicity. The newly dissolved peptides were also tested for cytotoxicity."}, "[1]": {"system": "human astroglioma-cell series (HTB-14)", "description": "as §1, §2"}, "[2]": {"settings": "aggregated form (suspension of peptide aggregate)"}, "[3]": {"settings": "soluble form (newly dissolved peptide)"}},
  "note": "Like-named read-outs stand apart in the source and are kept apart here. No end group written: not given here.",
  "data": [
    {"substance": "NFGAIL [NFGAIL]", "values": [
      {"measurement": "Cytotoxicity", "setting": "Rat Insulinoma (RIN5 mf); [2]", "value": "cyto-toxic"},
      {"measurement": "Cytotoxicity", "setting": "Rat Insulinoma (RIN5 mf); [3]", "value": "no toxicity"},
      {"measurement": "Cytotoxicity", "setting": "[1]; [2]", "value": "cyto-toxic"},
      {"measurement": "Cytotoxicity", "setting": "[1]; [3]", "value": "no toxicity"}
    ]}
  ]
}
